Assay results: the NIST ThermoML archive (doi:10.1021/je060496l)

Legend:
[1] = xn = mol fraction of the nth substance listed; conditions: 101 kPa, Liquid
[2] = 101 kPa, Liquid

OCCCO [propan-1,3-diol] + OCC(O)CO
mass density [kg/m3], [1]
Conditions | x2 = 0 | x2 = 0.0841 | x2 = 0.1712 | x2 = 0.2615 | x2 = 0.3552 | x2 = 0.4524 | x2 = 0.5534 | x2 = 0.6585 | x2 = 0.7677 | x2 = 0.8815
298.15 K | 1049.9 | 1067.8 | 1086.4 | 1105.7 | 1125.6 | 1146.4 | 1167.6 | 1189.3 | 1212.6 | 1235.2
303.15 K | 1047 | 1065 | 1083.5 | 1103 | 1122.8 | 1143.4 | 1164.6 | 1186.4 | 1209 | 1232.1
308.15 K | 1044.1 | 1062 | 1080.6 | 1100 | 1119.8 | 1140.6 | 1161.8 | 1183.5 | 1206.1 | 1229.3
313.15 K | 1040.8 | 1058.8 | 1077.5 | 1096.9 | 1116.8 | 1137.3 | 1158.7 | 1180.4 | 1203 | 1226.1
318.15 K | 1037.8 | 1055.7 | 1074.5 | 1093.9 | 1113.7 | 1134.3 | 1155.6 | 1177.2 | 1199.7 | 1222.8
323.15 K | 1034.8 | 1052.7 | 1071.4 | 1090.9 | 1110.7 | 1131.2 | 1152.5 | 1174.1 | 1196.6 | 1219.8
328.15 K | 1031.4 | 1049.3 | 1068.1 | 1087.6 | 1107.5 | 1127.8 | 1149.2 | 1170.8 | 1193.4 | 1216.6
333.15 K | 1028.2 | 1046.1 | 1064.9 | 1084.4 | 1104.1 | 1124.6 | 1145.9 | 1167.5 | 1190 | 1213.3

OCCCO [propan-1,3-diol]
[2]
Conditions | mass density [kg/m3]
298.15 K | 1049.9
303.15 K | 1047
308.15 K | 1044.1
313.15 K | 1040.8
318.15 K | 1037.8
323.15 K | 1034.8
328.15 K | 1031.4
333.15 K | 1028.2

OCC(O)CO [glycerol] + CC(O)CO
[1], x1 = 1
Conditions | mass density [kg/m3]
298.15 K | 1258.9
303.15 K | 1255.6
308.15 K | 1252.7
313.15 K | 1249.5
318.15 K | 1246.2
323.15 K | 1242.9
328.15 K | 1239.6
333.15 K | 1236

OCC(O)CO [glycerol] + CC(C)O
mass density [kg/m3], [1]
Conditions | x1 = 0.0676 | x1 = 0.1402 | x1 = 0.2185 | x1 = 0.3031 | x1 = 0.3949 | x1 = 0.4946 | x1 = 0.6036 | x1 = 0.723 | x1 = 0.8545 | x1 = 1
298.15 K | 813.5 | 848.6 | 887.5 | 929.1 | 974.3 | 1023.8 | 1077 | 1135.2 | 1196.5 | 1258.9
303.15 K | 809.5 | 844.7 | 883.8 | 926.4 | 970.6 | 1020 | 1073.4 | 1131.9 | 1193.4 | 1255.6
308.15 K | 805.5 | 840.5 | 879.9 | 922.3 | 967.3 | 1016.2 | 1070.4 | 1128.5 | 1190 | 1252.7
313.15 K | 801.4 | 836.1 | 875.9 | 918.4 | 963.4 | 1012.6 | 1067 | 1125 | 1186.8 | 1249.5
318.15 K | 796.8 | 831.9 | 871.7 | 914.5 | 959.2 | 1008.7 | 1063.1 | 1121.3 | 1183.2 | 1246.2
323.15 K | 792.2 | 827.6 | 867.4 | 910.2 | 955.3 | 1004.8 | 1059.6 | 1117.6 | 1180.3 | 1242.9
328.15 K | 787.5 | 823.3 | 863.3 | 906.2 | 951.3 | 1000.9 | 1055.7 | 1114.1 | 1176.6 | 1239.6
333.15 K | 782.9 | 818.4 | 858.8 | 901.6 | 947.5 | 997.2 | 1051.9 | 1110.5 | 1173.1 | 1236

OCC(O)CO [glycerol] + CCCO
mass density [kg/m3], [1]
Conditions | x1 = 0.0676 | x1 = 0.1402 | x1 = 0.2185 | x1 = 0.3031 | x1 = 0.3949 | x1 = 0.4946 | x1 = 0.6036 | x1 = 0.723 | x1 = 0.8545 | x1 = 1
298.15 K | 832.8 | 867.3 | 903.5 | 942.9 | 986 | 1032.7 | 1083.1 | 1138.8 | 1198.7 | 1258.9
303.15 K | 828.9 | 863.2 | 900 | 939.3 | 982.1 | 1029.5 | 1079.9 | 1135.7 | 1195.6 | 1255.6
308.15 K | 825 | 859.4 | 896 | 935.6 | 978.4 | 1025.9 | 1076.3 | 1132.4 | 1192.7 | 1252.7
313.15 K | 820.7 | 855.4 | 892.1 | 931.5 | 974.7 | 1022.3 | 1072.7 | 1128.8 | 1189.5 | 1249.5
318.15 K | 816.8 | 851.3 | 888.3 | 927.7 | 970.8 | 1018.4 | 1069.2 | 1125.5 | 1186.1 | 1246.2
323.15 K | 812.5 | 847.2 | 884.1 | 923.6 | 966.8 | 1014.7 | 1065.5 | 1122 | 1182.7 | 1242.9
328.15 K | 808.4 | 843.1 | 880.3 | 919.7 | 963.3 | 1010.8 | 1061.8 | 1118.3 | 1179.2 | 1239.6
333.15 K | 804.3 | 839.2 | 876.3 | 915.7 | 959.4 | 1006.8 | 1058 | 1114.3 | 1175.8 | 1236

CC(O)CO (configuration not stated) [1,2-propanediol] + OCC(O)CO
mass density [kg/m3], [1]
Conditions | x2 = 0 | x2 = 0.0841 | x2 = 0.1712 | x2 = 0.2615 | x2 = 0.3552 | x2 = 0.4524 | x2 = 0.5534 | x2 = 0.6585 | x2 = 0.7677 | x2 = 0.8815
298.15 K | 1032.5 | 1052.6 | 1072.7 | 1094.1 | 1115.8 | 1138.3 | 1161 | 1184.4 | 1207.8 | 1233.3
303.15 K | 1029.2 | 1049.2 | 1069.6 | 1090.5 | 1112.6 | 1134.8 | 1157.5 | 1181.2 | 1205 | 1230.1
308.15 K | 1025.3 | 1045.7 | 1066.1 | 1087.1 | 1109.3 | 1131.4 | 1154.2 | 1178 | 1202.2 | 1227.4
313.15 K | 1021.5 | 1042 | 1062.4 | 1083.8 | 1105.6 | 1128.2 | 1151.2 | 1175.1 | 1199.2 | 1224.4
318.15 K | 1018 | 1038.5 | 1058.6 | 1080.2 | 1102.3 | 1124.8 | 1147.9 | 1171.5 | 1195.6 | 1221
323.15 K | 1014 | 1034.7 | 1055 | 1076.3 | 1098.3 | 1121.2 | 1144.1 | 1168.1 | 1192.5 | 1218
328.15 K | 1010.2 | 1031 | 1051.4 | 1072.7 | 1094.7 | 1117.5 | 1140.5 | 1164.6 | 1189 | 1214.7
333.15 K | 1006.2 | 1027.2 | 1047.6 | 1069.2 | 1091.2 | 1114.3 | 1137.3 | 1161.3 | 1185.8 | 1211.3

CC(O)CO (configuration not stated) [1,2-propanediol]
[2]
Conditions | mass density [kg/m3]
298.15 K | 1032.5
303.15 K | 1029.2
308.15 K | 1025.3
313.15 K | 1021.5
318.15 K | 1018
323.15 K | 1014
328.15 K | 1010.2
333.15 K | 1006.2

CC(C)O [propan-2-ol] + OCC(O)CO
[1], x2 = 0
Conditions | mass density [kg/m3]
298.15 K | 780.6
303.15 K | 776.6
308.15 K | 772.3
313.15 K | 767.9
318.15 K | 763.3
323.15 K | 758.6
328.15 K | 753.8
333.15 K | 748.9

CCCO [propan-1-ol] + OCC(O)CO
[1], x2 = 0
Conditions | mass density [kg/m3]
298.15 K | 799.6
303.15 K | 795.5
308.15 K | 791.5
313.15 K | 787.3
318.15 K | 783.3
323.15 K | 779
328.15 K | 774.9
333.15 K | 770.8

CCCO [propan-1-ol]
[2]
Conditions | mass density [kg/m3]
298.15 K | 799.6
303.15 K | 795.5
308.15 K | 791.5
313.15 K | 787.3
318.15 K | 783.3
323.15 K | 779
328.15 K | 774.9
333.15 K | 770.8

OCC(O)CO [glycerol] + OCCCO
[1], x1 = 1
Conditions | mass density [kg/m3]
298.15 K | 1258.9
303.15 K | 1255.6
308.15 K | 1252.7
313.15 K | 1249.5
318.15 K | 1246.2
323.15 K | 1242.9
328.15 K | 1239.6
333.15 K | 1236

CC(C)O [propan-2-ol]
[2]
Conditions | mass density [kg/m3]
298.15 K | 780.6
303.15 K | 776.6
308.15 K | 772.3
313.15 K | 767.9
318.15 K | 763.3
323.15 K | 758.6
328.15 K | 753.8
333.15 K | 748.9

OCC(O)CO [glycerol]
[2]
Conditions | mass density [kg/m3]
298.15 K | 1258.9
303.15 K | 1255.6
308.15 K | 1252.7
313.15 K | 1249.5
318.15 K | 1246.2
323.15 K | 1242.9
328.15 K | 1239.6
333.15 K | 1236
